These results are taken from patent US20260055065A1, “PYRIDAZINONE COMPOUNDS WHICH MODULATE MUTANT PROTEINS FOR TREATING RESPIRATORY DISEASES” (The Hospital for Sick Children, priority 2022, published 2026).

Type in all cases: cell-based
One assay addresses T1, F508del-CFTR (Homo sapiens, UniProt P13569, DEL508-508).
T1 construct: F508del-CFTR was endogenously expressed in CFBE41o^− cells; endogenous in cells; host or cells: CFBE41o-
The experiment in a line: Dose response, potentiation of forskolin-activated F508del-CFTR chloride channel activity in CFBE41o- cells (fluorescence membrane potential assay). Conditions: low temperature (27 degrees Celsius) correction, read-out: potency in potentiating cyclic AMP dependent F508del-CFTR chloride channel activity. The method, then:
In these studies, F508del-CFTR was endogenously expressed in CFBE41o^− cells and it's trafficking defect corrected by low temperature (27 degrees Celsius) incubation. The fold increase in cyclic AMP dependent F508del-CFTR mediated chloride channel activity induced by potentiator treatment was determined using the fluorescence-based, membrane potential difference assay previously described.

A further assay has as its target T2, CFTR (Mustela putorius furo, UniProt Q07E16).
T2 construct: primary bronchial epithelial cultures prepared from adult ferret trachea; from tissue; host or cells: primary bronchial epithelial cultures from adult ferret trachea
The experiment in a line: Ussing chamber, primary bronchial epithelial cultures from adult ferret trachea. Particulars: 1 μM, after forskolin 100 nM. On the procedure:
Student's “t” test was conducted.

In assay [1] the test system is primary differentiated human bronchial epithelial cultures. The experiment in a line: Bead tracking assay of mucociliary movement, primary bronchial epithelial cultures exposed to cigarette smoke extract. Particulars: for mucostasis / bead velocity in CSE-treated cultures: CSE 2%, compound 1 μM for 24 hours, forskolin 10 μM. On the procedure:
Compound 11 was tested in an in-vitro model of COPD. In this model, primary differentiated human bronchial epithelial cultures were exposed to cigarette smoke extract (4,5). Exposure to cigarette smoke extract (CSE) led to mucostasis and slowed mucociliary movement (FIG. 1(A) and (B)). […] Changes in mucociliary movement were determined as in our previous publication (7), i.e., by tracking the speed of fluorescent beads added to the surface of the airway cultures. The relative rescue effect of Compound 11 compared favourably relative to the competitor, the FDA approved CFTR potentiator marketed as Ivacaftor (VX-770).
Mature bronchial epithelial cultures, seeded on 24-well transwell inserts, derived from non-smoker donors of variable ages were received from the University of Iowa and cultured at air-liquid interface (ALI) using UltraG medium. A total of 6 inserts per donor were cultured, and all inserts from a single donor were selected to receive chronic drug and toxin treatment. Ahead of chronic treatment, cultures were subject to mucomist to reduce the volume and viscosity of the mucous layer ahead of imaging. Cultures were first washed twice with 200 uL HBSS (Wisent) applied apically to the transwell, each wash for 10 minutes at 37 degrees and 5% CO2. Cells were then incubated with 10 μM N-acetyl-cysteine (source?) dissolved in HBSS (Wisent) for 30 minutes, followed by a final HBSS wash as described previously. The toxin treatment consisted of either cigarette smoke extract (CSE) prepared in 100% DMSO (University of Alabama at Birmingham), dissolved at a concentration of 2% (v/v) in UltraG medium, with an equivalent concentration of DMSO alone serving as a control. The chronic drug treatment was co-applied with the toxin treatment, which included either VX-770 (Vertex) or SK-POT, aka Compound 11 (both prepared in 100% DMSO) dissolved in UltraG medium at a final concentration of 1 μm. There were a total of 6 chronic treatments, with each of the 6 inserts per donor receiving a different chronic treatment. Bronchial epithelia were incubated with the chronic treatment, applied apically, for 24 hours at 37 degrees C. and 5% CO2. After 24 hours, green fluorescent microspheres (brand?) dissolved in HBSS at a concentration of 0.05% (v/v) were applied apically; cultures were incubated with the microspheres for 45 minutes. The toxin and potentiator treatments were carried forth into the microsphere solution.
Inserts were then imaged at room temperature by epifluorescence microscopy (Zeiss or Olympus). The basic replicate of the assay consists of a 5-second video captured in the green channel and 40-60 frames per second; Z-position was adjusted ahead of each video to ensure beads in the airway surface liquid stratum immediately above the cilia were being captured. 5 videos were captured per insert/conditions, representing the centre and 4 corners of the insert. 2 sets of 5 videos were captured per insert/condition: one at baseline, and one 20 minutes following CFTR stimulation by forskolin at a concentration of 10 μM. Inserts were incubated at room temperature after forskolin addition.
Videos were captured using Volocity software and exported as one TIF file per frame. Frames were then re-compiled into complete videos using Arivis 4D software. Using an algorithm as previously described in Wu et al. 2017, microspheres were highlighted by adjusting two parameters: fluorescence intensity and diameter. […]

“Also recorded” adds a separate entry of the source.

T2 sequence (Q07E16 whole entry): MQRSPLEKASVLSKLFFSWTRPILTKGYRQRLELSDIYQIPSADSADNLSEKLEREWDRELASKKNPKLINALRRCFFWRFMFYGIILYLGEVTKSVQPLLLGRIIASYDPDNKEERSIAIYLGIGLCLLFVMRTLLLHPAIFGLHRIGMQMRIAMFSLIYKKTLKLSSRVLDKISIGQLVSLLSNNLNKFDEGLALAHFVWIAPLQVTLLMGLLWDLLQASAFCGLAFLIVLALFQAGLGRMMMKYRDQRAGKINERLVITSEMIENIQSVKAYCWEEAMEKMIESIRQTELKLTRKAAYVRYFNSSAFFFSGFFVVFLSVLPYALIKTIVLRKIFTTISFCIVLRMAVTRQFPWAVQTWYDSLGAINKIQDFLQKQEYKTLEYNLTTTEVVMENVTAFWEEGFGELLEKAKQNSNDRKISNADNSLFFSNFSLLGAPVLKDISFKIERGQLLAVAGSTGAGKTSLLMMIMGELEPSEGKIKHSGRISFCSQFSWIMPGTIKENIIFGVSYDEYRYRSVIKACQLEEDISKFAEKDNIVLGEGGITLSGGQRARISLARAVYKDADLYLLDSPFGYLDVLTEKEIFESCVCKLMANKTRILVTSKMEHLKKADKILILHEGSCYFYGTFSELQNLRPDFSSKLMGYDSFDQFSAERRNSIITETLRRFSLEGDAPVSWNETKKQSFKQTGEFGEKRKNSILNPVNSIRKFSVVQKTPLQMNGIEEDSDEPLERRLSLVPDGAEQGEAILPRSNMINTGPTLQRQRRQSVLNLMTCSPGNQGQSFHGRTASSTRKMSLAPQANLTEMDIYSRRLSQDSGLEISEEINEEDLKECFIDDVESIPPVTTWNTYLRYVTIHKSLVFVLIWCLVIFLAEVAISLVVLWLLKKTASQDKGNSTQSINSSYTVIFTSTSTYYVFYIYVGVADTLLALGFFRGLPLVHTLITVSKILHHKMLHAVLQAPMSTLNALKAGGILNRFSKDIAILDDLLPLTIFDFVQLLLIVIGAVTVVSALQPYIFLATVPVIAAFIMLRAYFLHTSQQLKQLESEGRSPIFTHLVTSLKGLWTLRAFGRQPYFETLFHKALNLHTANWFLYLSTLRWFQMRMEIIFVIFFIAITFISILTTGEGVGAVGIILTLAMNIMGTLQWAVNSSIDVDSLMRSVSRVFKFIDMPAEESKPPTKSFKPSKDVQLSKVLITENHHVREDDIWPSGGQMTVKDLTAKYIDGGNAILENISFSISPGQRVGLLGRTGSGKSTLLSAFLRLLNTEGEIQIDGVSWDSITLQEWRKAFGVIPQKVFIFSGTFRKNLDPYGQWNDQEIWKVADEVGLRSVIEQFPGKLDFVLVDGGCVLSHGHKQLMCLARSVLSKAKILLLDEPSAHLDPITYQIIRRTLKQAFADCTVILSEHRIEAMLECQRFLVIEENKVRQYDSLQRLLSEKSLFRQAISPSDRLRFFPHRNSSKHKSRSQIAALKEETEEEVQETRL
T1 sequence (P13569 with tags, fused parts or gaps DEL508-508): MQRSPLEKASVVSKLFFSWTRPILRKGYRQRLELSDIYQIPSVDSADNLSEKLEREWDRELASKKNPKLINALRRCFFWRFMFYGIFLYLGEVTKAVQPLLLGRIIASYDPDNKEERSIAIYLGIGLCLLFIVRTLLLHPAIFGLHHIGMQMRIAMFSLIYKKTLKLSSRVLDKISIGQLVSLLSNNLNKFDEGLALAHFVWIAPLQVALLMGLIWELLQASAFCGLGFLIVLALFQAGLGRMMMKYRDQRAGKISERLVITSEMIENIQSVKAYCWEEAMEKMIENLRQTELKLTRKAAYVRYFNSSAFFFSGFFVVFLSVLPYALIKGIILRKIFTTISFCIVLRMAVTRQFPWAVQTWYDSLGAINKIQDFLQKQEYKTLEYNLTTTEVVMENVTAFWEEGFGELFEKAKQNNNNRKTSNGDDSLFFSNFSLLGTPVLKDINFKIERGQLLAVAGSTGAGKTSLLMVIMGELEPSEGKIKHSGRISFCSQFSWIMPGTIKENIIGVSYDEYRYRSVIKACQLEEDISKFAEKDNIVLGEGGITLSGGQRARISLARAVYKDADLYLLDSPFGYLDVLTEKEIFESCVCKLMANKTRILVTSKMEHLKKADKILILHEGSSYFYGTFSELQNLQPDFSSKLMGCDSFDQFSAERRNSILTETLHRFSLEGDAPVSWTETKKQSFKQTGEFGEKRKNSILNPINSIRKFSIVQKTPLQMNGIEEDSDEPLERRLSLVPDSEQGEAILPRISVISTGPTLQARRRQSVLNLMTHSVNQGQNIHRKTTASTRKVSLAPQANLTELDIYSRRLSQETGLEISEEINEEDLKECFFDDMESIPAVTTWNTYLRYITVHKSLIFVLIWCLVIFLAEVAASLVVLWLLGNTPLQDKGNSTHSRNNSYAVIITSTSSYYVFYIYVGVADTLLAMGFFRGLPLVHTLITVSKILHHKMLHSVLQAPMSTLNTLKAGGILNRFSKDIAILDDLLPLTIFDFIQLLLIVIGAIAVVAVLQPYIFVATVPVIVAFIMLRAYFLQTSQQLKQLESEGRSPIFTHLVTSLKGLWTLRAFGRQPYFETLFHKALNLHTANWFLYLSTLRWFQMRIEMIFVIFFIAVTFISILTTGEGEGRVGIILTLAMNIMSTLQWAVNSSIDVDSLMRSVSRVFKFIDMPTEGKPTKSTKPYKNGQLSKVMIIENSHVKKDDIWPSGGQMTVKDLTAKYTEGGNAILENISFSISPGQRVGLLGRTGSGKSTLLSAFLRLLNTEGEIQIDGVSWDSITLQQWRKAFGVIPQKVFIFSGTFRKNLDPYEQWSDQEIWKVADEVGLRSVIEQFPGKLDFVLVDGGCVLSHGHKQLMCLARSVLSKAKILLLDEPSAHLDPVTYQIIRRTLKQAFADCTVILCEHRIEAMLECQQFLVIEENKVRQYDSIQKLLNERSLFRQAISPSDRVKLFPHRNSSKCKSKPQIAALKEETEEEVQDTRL

For `CC(C)(C)c1ccc(-n2nc(-c3ccc(F)cc3)c(N3CCCCC3)c(N)c2=O)cc1O` [Compound 11, 4-amino-2-(4-(tert-butyl)-3-hydroxyphenyl)-6-(4-fluorophenyl)-5-(piperidin-1-yl)pyridazin-3(2H)-one], the EC50 at F508del-CFTR was 5 nM. In addition, the “CFTR channel function in ferret bronchial tissue” value on CFTR is listed as “effective in augmenting CFTR channel function”. Besides, the “mucostasis / bead velocity in CSE-treated cultures” value in assay [1] is “prevented the mucostasis induced by cigarette smoke extract; also recorded: rescued to control values”; in assay [1] (listed as SK-POT), “significant increase in bead velocity”. In addition, in assay [1] (no CSE, compound added with vehicle for 24 hours), the “bead velocity under control conditions” value is recorded as “Neither VX-770 nor Compound 11 had any impact on bead velocity”.
